#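 Protocol summary: plate cells (96-well), add compound at 5 concentrations, incubate 48 h, interpolate endpoints linearly. TGI: total growth inhibition.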
# Assays:
# Assay in all cases: DTP human tumour cell line panel, 48 h
# RXF 393 renal = test system: RXF 393 renal
# KM12 colon = test system: KM12 colon
# SW-620 colon = test system: SW-620 colon
# NCI-H23 lung = test system: NCI-H23 lung
# OVCAR-3 ovarian = test system: OVCAR-3 ovarian
# HS 578T breast = test system: HS 578T breast
# SR leukemia = test system: SR leukemia
# NCI/ADR-RES ovarian = test system: NCI/ADR-RES ovarian
# TK-10 renal = test system: TK-10 renal
# CAKI-1 renal = test system: CAKI-1 renal
# SF-539 CNS = test system: SF-539 CNS
# SF-268 CNS = test system: SF-268 CNS
# MOLT-4 leukemia = test system: MOLT-4 leukemia
# BT-549 breast = test system: BT-549 breast
# UACC-257 melanoma = test system: UACC-257 melanoma
# SK-MEL-28 melanoma = test system: SK-MEL-28 melanoma
# COLO 205 colon = test system: COLO 205 colon
# NCI-H226 lung = test system: NCI-H226 lung
# UACC-62 melanoma = test system: UACC-62 melanoma
# CCRF-CEM leukemia = test system: CCRF-CEM leukemia
# T-47D breast = test system: T-47D breast
# M14 melanoma = test system: M14 melanoma
# MALME-3M melanoma = test system: MALME-3M melanoma
# OVCAR-4 ovarian = test system: OVCAR-4 ovarian
# DU-145 prostate = test system: DU-145 prostate
# SK-MEL-2 melanoma = test system: SK-MEL-2 melanoma
# NCI-H460 lung = test system: NCI-H460 lung
# ACHN renal = test system: ACHN renal
# EKVX NSCLC = test system: EKVX NSCLC
# SNB-75 CNS = test system: SNB-75 CNS
# IGROV1 ovarian = test system: IGROV1 ovarian
# MDA-MB-231 breast = test system: MDA-MB-231 breast
# HL-60(TB) leukemia = test system: HL-60(TB) leukemia
# SK-OV-3 ovarian = test system: SK-OV-3 ovarian
# A549 NSCLC = test system: A549 NSCLC
# SK-MEL-5 melanoma = test system: SK-MEL-5 melanoma
# MDA-N = test system: MDA-N
# A498 renal = test system: A498 renal
# PC-3 prostate = test system: PC-3 prostate
# LOX IMVI melanoma = test system: LOX IMVI melanoma
# NCI-H522 lung = test system: NCI-H522 lung
# OVCAR-5 ovarian = test system: OVCAR-5 ovarian
# HT29 colon = test system: HT29 colon
# OVCAR-8 ovarian = test system: OVCAR-8 ovarian
# MDA-MB-435 = test system: MDA-MB-435
# HCT-116 colon = test system: HCT-116 colon
# 786-0 renal = test system: 786-0 renal
# SNB-19 CNS = test system: SNB-19 CNS
# UO-31 renal = test system: UO-31 renal
# K-562 leukemia = test system: K-562 leukemia
# HOP-92 NSCLC = test system: HOP-92 NSCLC
# HCT-15 colon = test system: HCT-15 colon
# MCF7 breast = test system: MCF7 breast
# HOP-62 NSCLC = test system: HOP-62 NSCLC
# RPMI-8226 leukemia = test system: RPMI-8226 leukemia
# SN12C renal = test system: SN12C renal
# U251 CNS = test system: U251 CNS
# SF-295 CNS = test system: SF-295 CNS
# HCC-2998 colon = test system: HCC-2998 colon
compound,measurement,setting,value
O=C(O)CCNc1ccccc1C(=O)O,TGI,RXF 393 renal,> 100 µM
same,TGI,KM12 colon,> 100 µM
same,TGI,SW-620 colon,> 100 µM
same,TGI,NCI-H23 lung,> 100 µM
same,TGI,OVCAR-3 ovarian,> 100 µM
same,TGI,HS 578T breast,> 100 µM
same,TGI,SR leukemia,> 100 µM
same,TGI,NCI/ADR-RES ovarian,> 100 µM
same,TGI,TK-10 renal,> 100 µM
same,TGI,CAKI-1 renal,> 100 µM
same,TGI,SF-539 CNS,> 100 µM
same,TGI,SF-268 CNS,> 100 µM
same,TGI,MOLT-4 leukemia,> 100 µM
same,TGI,BT-549 breast,> 100 µM
same,TGI,UACC-257 melanoma,> 100 µM
same,TGI,SK-MEL-28 melanoma,> 100 µM
same,TGI,COLO 205 colon,> 100 µM
same,TGI,NCI-H226 lung,> 100 µM
same,TGI,UACC-62 melanoma,> 100 µM
same,TGI,CCRF-CEM leukemia,> 100 µM
same,TGI,T-47D breast,> 100 µM
same,TGI,M14 melanoma,> 100 µM
same,TGI,MALME-3M melanoma,> 100 µM
same,TGI,OVCAR-4 ovarian,> 100 µM
same,TGI,DU-145 prostate,> 100 µM
same,TGI,SK-MEL-2 melanoma,> 100 µM
same,TGI,NCI-H460 lung,> 100 µM
same,TGI,ACHN renal,> 100 µM
same,TGI,EKVX NSCLC,> 100 µM
same,TGI,SNB-75 CNS,> 100 µM
same,TGI,IGROV1 ovarian,> 100 µM
same,TGI,MDA-MB-231 breast,> 100 µM
same,TGI,HL-60(TB) leukemia,> 100 µM
same,TGI,SK-OV-3 ovarian,> 100 µM
same,TGI,A549 NSCLC,> 100 µM
same,TGI,SK-MEL-5 melanoma,> 100 µM
same,TGI,MDA-N,> 100 µM
same,TGI,A498 renal,> 100 µM
same,TGI,PC-3 prostate,> 100 µM
same,TGI,LOX IMVI melanoma,> 100 µM
same,TGI,NCI-H522 lung,> 100 µM
same,TGI,OVCAR-5 ovarian,> 100 µM
same,TGI,HT29 colon,> 100 µM
same,TGI,OVCAR-8 ovarian,> 100 µM
same,TGI,MDA-MB-435,> 100 µM
same,TGI,HCT-116 colon,> 100 µM
same,TGI,786-0 renal,> 100 µM
same,TGI,SNB-19 CNS,> 100 µM
same,TGI,UO-31 renal,> 100 µM
same,TGI,K-562 leukemia,> 100 µM
same,TGI,HOP-92 NSCLC,> 100 µM
same,TGI,HCT-15 colon,> 100 µM
same,TGI,MCF7 breast,> 100 µM
same,TGI,HOP-62 NSCLC,> 100 µM
same,TGI,RPMI-8226 leukemia,> 100 µM
same,TGI,SN12C renal,> 100 µM
same,TGI,U251 CNS,> 100 µM
same,TGI,SF-295 CNS,> 100 µM
Cc1cccc(C(C)C)c1NC(=O)C(=O)CC(=O)c1sc(Nc2ccccc2Cl)nc1C,TGI,RXF 393 renal,> 100 µM
same,TGI,KM12 colon,> 100 µM
same,TGI,SW-620 colon,> 100 µM
same,TGI,NCI-H23 lung,> 100 µM
same,TGI,OVCAR-3 ovarian,> 100 µM
same,TGI,HS 578T breast,> 100 µM
same,TGI,SR leukemia,> 100 µM
same,TGI,TK-10 renal,> 100 µM
same,TGI,CAKI-1 renal,> 100 µM
same,TGI,SF-539 CNS,24.7 µM
same,TGI,SF-268 CNS,> 100 µM
same,TGI,MOLT-4 leukemia,> 100 µM
same,TGI,BT-549 breast,93.2 µM
same,TGI,UACC-257 melanoma,> 100 µM
same,TGI,SK-MEL-28 melanoma,> 100 µM
same,TGI,COLO 205 colon,> 100 µM
same,TGI,UACC-62 melanoma,> 100 µM
same,TGI,CCRF-CEM leukemia,> 100 µM
same,TGI,T-47D breast,> 100 µM
same,TGI,M14 melanoma,> 100 µM
same,TGI,MALME-3M melanoma,> 100 µM
same,TGI,OVCAR-4 ovarian,> 100 µM
same,TGI,DU-145 prostate,> 100 µM
same,TGI,SK-MEL-2 melanoma,> 100 µM
same,TGI,NCI-H460 lung,51.1 µM
same,TGI,ACHN renal,> 100 µM
same,TGI,EKVX NSCLC,> 100 µM
same,TGI,SNB-75 CNS,> 100 µM
same,TGI,IGROV1 ovarian,> 100 µM
same,TGI,MDA-MB-231 breast,> 100 µM
same,TGI,HL-60(TB) leukemia,41 µM
same,TGI,SK-OV-3 ovarian,> 100 µM
same,TGI,A549 NSCLC,> 100 µM
same,TGI,SK-MEL-5 melanoma,87.9 µM
same,TGI,MDA-N,54.6 µM
same,TGI,A498 renal,> 100 µM
same,TGI,HCC-2998 colon,32.7 µM
same,TGI,PC-3 prostate,> 100 µM
same,TGI,LOX IMVI melanoma,> 100 µM
same,TGI,NCI-H522 lung,> 100 µM
same,TGI,OVCAR-5 ovarian,> 100 µM
same,TGI,MDA-MB-435,33.2 µM
same,TGI,HCT-116 colon,> 100 µM
same,TGI,786-0 renal,> 100 µM
same,TGI,SNB-19 CNS,> 100 µM
same,TGI,UO-31 renal,> 100 µM
same,TGI,HOP-92 NSCLC,66.2 µM
same,TGI,HCT-15 colon,> 100 µM
same,TGI,MCF7 breast,> 100 µM
same,TGI,HOP-62 NSCLC,> 100 µM
same,TGI,RPMI-8226 leukemia,> 100 µM
same,TGI,SN12C renal,> 100 µM
same,TGI,U251 CNS,> 100 µM
same,TGI,SF-295 CNS,> 100 µM
CC(=O)ON(C(C)=O)c1ccc(-c2nc3ccccc3s2)cc1,TGI,RXF 393 renal,> 79.3 µM
same,TGI,KM12 colon,33.2 µM
same,TGI,SW-620 colon,> 59.9 µM
same,TGI,NCI-H23 lung,> 90.8 µM
same,TGI,OVCAR-3 ovarian,66.7 µM
same,TGI,HS 578T breast,> 88 µM
same,TGI,SR leukemia,> 100 µM
same,TGI,NCI/ADR-RES ovarian,39.9 µM
same,TGI,TK-10 renal,> 100 µM
same,TGI,SF-539 CNS,29.4 µM
same,TGI,SF-268 CNS,> 100 µM
same,TGI,MOLT-4 leukemia,49.3 µM
same,TGI,BT-549 breast,> 100 µM
same,TGI,UACC-257 melanoma,> 83.5 µM
same,TGI,SK-MEL-28 melanoma,> 70.8 µM
same,TGI,COLO 205 colon,> 53.7 µM
same,TGI,NCI-H226 lung,27.7 µM
same,TGI,UACC-62 melanoma,48.7 µM
same,TGI,CCRF-CEM leukemia,> 100 µM
same,TGI,T-47D breast,> 66.5 µM
same,TGI,M14 melanoma,64 µM
same,TGI,MALME-3M melanoma,30.5 µM
same,TGI,OVCAR-4 ovarian,> 100 µM
same,TGI,DU-145 prostate,> 77.1 µM
same,TGI,SK-MEL-2 melanoma,67.1 µM
same,TGI,NCI-H460 lung,> 100 µM
same,TGI,ACHN renal,50.4 µM
same,TGI,EKVX NSCLC,65.2 µM
same,TGI,SNB-75 CNS,> 89.9 µM
same,TGI,IGROV1 ovarian,36.9 µM
same,TGI,MDA-MB-231 breast,> 91.5 µM
same,TGI,SK-OV-3 ovarian,> 100 µM
same,TGI,A549 NSCLC,> 79 µM
same,TGI,SK-MEL-5 melanoma,89.9 µM
same,TGI,MDA-N,> 77 µM
same,TGI,A498 renal,> 67.2 µM
same,TGI,HCC-2998 colon,41.9 µM
same,TGI,PC-3 prostate,> 100 µM
same,TGI,LOX IMVI melanoma,> 66.7 µM
same,TGI,NCI-H522 lung,30.7 µM
same,TGI,OVCAR-5 ovarian,98.6 µM
same,TGI,HT29 colon,52.4 µM
same,TGI,OVCAR-8 ovarian,> 58 µM
same,TGI,MDA-MB-435,> 60.3 µM
same,TGI,HCT-116 colon,> 54.7 µM
same,TGI,786-0 renal,> 57.5 µM
same,TGI,SNB-19 CNS,> 100 µM
same,TGI,UO-31 renal,33.2 µM
same,TGI,K-562 leukemia,> 100 µM
same,TGI,HOP-92 NSCLC,> 81.6 µM
same,TGI,HCT-15 colon,> 68.4 µM
same,TGI,HOP-62 NSCLC,> 55.8 µM
same,TGI,RPMI-8226 leukemia,55.4 µM
same,TGI,SN12C renal,> 100 µM
same,TGI,U251 CNS,> 60.9 µM
same,TGI,SF-295 CNS,> 76.4 µM
